Reference: patent US5250679A, “Nonpeptidyl platelet aggregation inhibitors having specificity for the GPIIb III receptor” (Genentech, Inc., priority 1992, dated 1993)
Where a name gives a salt, the structure may show the parent alone. Read-outs that look alike come from different tables or passages of the source.

Columns and labels:
[1] = target: T1, GP IIb IIIa (Homo sapiens, UniProt P05106+P08514); experiment: Fibrinogen-GP IIb IIIa Receptor ELISA Binding Assay (Fg/IIbIIIa)
T1 construct: from tissue; host or cells: outdated human platelets
T1 sequence (P08514 32-887 limits assumed): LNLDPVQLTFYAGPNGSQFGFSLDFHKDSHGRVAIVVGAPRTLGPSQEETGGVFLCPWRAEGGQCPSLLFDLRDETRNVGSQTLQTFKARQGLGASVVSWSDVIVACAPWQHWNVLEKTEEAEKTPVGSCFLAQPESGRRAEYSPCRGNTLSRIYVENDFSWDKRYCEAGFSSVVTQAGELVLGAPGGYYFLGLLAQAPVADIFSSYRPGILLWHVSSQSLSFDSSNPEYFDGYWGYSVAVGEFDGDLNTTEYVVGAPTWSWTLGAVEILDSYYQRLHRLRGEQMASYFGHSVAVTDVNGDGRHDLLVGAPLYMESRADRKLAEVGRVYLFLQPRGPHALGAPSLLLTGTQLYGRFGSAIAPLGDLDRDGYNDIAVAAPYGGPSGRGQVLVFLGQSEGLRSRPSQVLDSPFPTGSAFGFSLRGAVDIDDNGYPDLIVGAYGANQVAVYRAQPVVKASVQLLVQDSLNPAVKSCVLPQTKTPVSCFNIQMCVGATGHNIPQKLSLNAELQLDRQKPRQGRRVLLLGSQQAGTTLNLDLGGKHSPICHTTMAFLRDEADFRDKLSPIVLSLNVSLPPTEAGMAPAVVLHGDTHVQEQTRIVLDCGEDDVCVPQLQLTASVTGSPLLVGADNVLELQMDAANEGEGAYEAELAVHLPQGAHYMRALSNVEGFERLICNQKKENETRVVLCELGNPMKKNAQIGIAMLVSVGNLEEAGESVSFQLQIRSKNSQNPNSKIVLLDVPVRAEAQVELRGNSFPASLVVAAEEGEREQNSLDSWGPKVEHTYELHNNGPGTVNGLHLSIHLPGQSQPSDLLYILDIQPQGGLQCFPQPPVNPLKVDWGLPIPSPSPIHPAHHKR
T1 sequence (P08514 891-1039 partner limits assumed): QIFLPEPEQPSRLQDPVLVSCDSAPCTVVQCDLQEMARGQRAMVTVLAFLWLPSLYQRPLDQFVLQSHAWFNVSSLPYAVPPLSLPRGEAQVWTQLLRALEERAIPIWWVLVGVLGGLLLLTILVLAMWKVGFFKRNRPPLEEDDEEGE
T1 sequence (P05106 27-788): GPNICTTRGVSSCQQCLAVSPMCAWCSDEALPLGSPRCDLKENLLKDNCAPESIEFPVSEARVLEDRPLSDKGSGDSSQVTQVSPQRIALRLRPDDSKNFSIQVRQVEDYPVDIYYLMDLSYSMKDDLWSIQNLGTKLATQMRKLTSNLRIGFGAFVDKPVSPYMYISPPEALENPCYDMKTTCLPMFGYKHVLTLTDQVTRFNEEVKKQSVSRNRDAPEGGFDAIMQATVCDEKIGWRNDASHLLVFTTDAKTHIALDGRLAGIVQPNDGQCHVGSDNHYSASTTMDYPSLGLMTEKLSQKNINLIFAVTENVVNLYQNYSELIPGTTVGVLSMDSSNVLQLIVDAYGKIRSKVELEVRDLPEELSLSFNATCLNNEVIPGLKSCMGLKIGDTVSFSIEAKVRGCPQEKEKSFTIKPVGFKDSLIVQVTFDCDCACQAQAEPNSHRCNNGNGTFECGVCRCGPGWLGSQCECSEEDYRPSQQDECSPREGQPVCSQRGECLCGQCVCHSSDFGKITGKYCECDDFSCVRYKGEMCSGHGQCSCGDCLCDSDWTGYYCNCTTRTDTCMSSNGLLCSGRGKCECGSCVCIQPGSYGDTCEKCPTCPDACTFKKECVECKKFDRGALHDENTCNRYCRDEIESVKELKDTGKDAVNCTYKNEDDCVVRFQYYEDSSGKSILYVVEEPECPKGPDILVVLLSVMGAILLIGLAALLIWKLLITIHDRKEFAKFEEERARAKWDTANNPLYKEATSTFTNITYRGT
Method: Briefly, microtiter plates are coated with fibrinogen (10 mg/ml) and then blocked with TACTS buffer containing 0.5% bovine serum albumin (BSA). […] After another wash a goat anti-mouse IgG conjugated to horseradish peroxidase is added. […] The reaction is stopped with 1N sulfuric acid and the absorbance at 492 nm is recorded. […] Outdated human platelets are washed 3 times with 10 mM tris-HCl, 150 mM NaCl (TBS), 1 mM EDTA, pH 7.5, and centrifuged at 2000×g to pellet cells. […] The supernatant fraction is collected and the supernatant is loaded onto a concanavalin-A column, previously equilibrated in TBS, 1 mM Ca2 Cl2, 0.1% Triton, 0.05% NaN3 and eluted with 0.2M a-methylmannoside. Fractions are pooled and loaded onto a heparin-agarose column. The flowthrough is collected and concentrated on an Amicon YM 30 filter to a volume of approximately 5-10 ml. The concentrate is then applied to an S-300 column (500 ml) and 6 ml fractions are collected. The GP IIb IIIa containing fractions are collected, pooled, and stored at -80° C. […] The precipitate is spun down in appropriate size bottles at 2000×g. The supernatant is decanted and the precipitate resuspended in 150 mM NaCl (approximately 50% of the original volume). […] The suspension is spun down and the precipitate is resuspended in Tris-saline in a minimal volume (approximately 5% of the original volume). Any remaining insoluble material is spun down at 2000 rpm in a Sorval type centrifuge and the fibrinogen supernatant is decanted and dialyzed overnight at 4° C. against Tris-saline. Characterization of the fibrinogen is by the Bradford protein assay, SDS-PAGE, and/or Western blotting using well known standard procedures. Briefly, 96 well plates are coated (Type Nunc 1 MaxisorpTM) with 10 mg/ml purified fibrinogen ([…]), and allowed to stand overnight at 4° C. […] The plates are again washed three times with PBS/Tween and then […] of sample in TNCNT is added. The mixture is incubated for 15 minutes at room temperature on a plate shaker. […] Fifty ml of this diluted GP IIb IIIa is then added to each well and incubated on a plate shaker at room temperature. After one hour, the plates are washed four times with PBS/Tween and 100 ml of a polyclonal or monoclonal antibody specific for GP IIIa such as AP3 (1 mg/ml) (See e.g. […] After a one hour incubation at room temperature on a plate shaker, the samples are washed 4 times with PBS/Tween. […] The color develops within about 3 to 20 minutes and the reaction is stopped with 100 ml 1M H2 SO4. The optical density at 492 nm vs 405 nm is recorded and IC50 values are determined.

[2] = tested on: human platelet rich plasma (PRP); experiment: In Vitro Human Platelet Aggregation Assay (PA); type: cell-based; details: Homo sapiens, Platelet
Method: In addition to the GPIIb IIIa ELISA assay, platelet aggregation assays may be performed in human platelet rich plasma (PRP). […] The blood is centrifuged at 160×g for 10 min at 22° C. and then allowed to stand for 5 min after which the PRP is decanted. Platelet poor plasma (PPP) is isolated from the remaining blood after centrifugation at 2000×g for 25 min. The platelet count of the PRP is adjusted to ca. 300,000 per microliter with PPP.
A 225 mL aliquot of PRP plus 25 mL of either a dilution of the test sample or a control (PBS) is incubated for 5 min in a Chrono-log Whole Blood Aggregometer at 25° C. An aggregating agent (collagen, 1 mg/ml; U46619, 100 ng/ml; or ADP, 8 mM) is added and the platelet aggregation recorded.
Platelet aggregation assays are performed in human platelet rich plasma (PRP). […] The blood is centrifuged at 160×g for 10 minutes at 22° C. and allowed to stand for 5 minutes after which the PRP is decanted. Platelet poor plasma (PPP) is isolated from the remaining blood after centrifugation at 2000×g for 25 minutes. The platelet count of the PRP is diluted to about 300,000 platelets per microliter with PPP.
A 225 ml aliquot of PRP plus 25 ml of either a dilution of the test inhibitor sample or a control (PBS) is incubated for 5 minutes in a Chrono-log Whole Blood Aggregometer at 25° C. An aggregating agent (collagen, 1 mg/ml; U46619, 100 ng/ml; or ADP, 17 mM) is added and the transmission is recorded.

[3] = Example 29, Cmpd # 1-105, read-out: IC50 Fg/IIbI
[4] = Example 30, G # table, read-out: IC50 (μM) Fg/IIbIIIa
[5] = citrate, read-out: PA IC50 (μM) (citrate)
[6] = Examples 29 and 30, Cmpd # tables, read-out: IC50 (μM) Fg/IIbIIIa

SMILES	IC50 [1, 3] [µM]	IC50 [1, 4] [µM]	IC50 [2, 5] [µM]	IC50 [1, 6] [µM]	IC50 ([2]; heparin, read-out: PA IC50 (μM) (heparin)) [µM]
NCCCCCc1ccc2c(c1)C(=O)N(CCC(=O)O)CC(=O)N2Cc1ccc2ccccc2c1 [Cmpd 76, 1-(2-napthyl)methyl-4-(2-carboxyethyl)-7-(5-aminopentyl)-3,4-dihydro-1H-1,4-benzodiazepine-2,5-dione trifluoroacetate]	0.077	0.077	28.9		
N=C(N)NCCCCCCc1ccc2c(c1)C(=O)N(CCC(=O)O)CC(=O)N2Cc1cccc2ccccc12 [Cmpd 85, 1-(1-napthyl)methyl-4-(2-carboxyethyl)-7-(6-guanidinohexyl)-3,4-dihydro-1H-1,4-benzodiazepine-2,5-dione trifluoroacetate]	0.014	0.014	6.2		
CCCCC(=O)Nc1cccc(CN2C(=O)CN(CCC(=O)O)C(=O)c3cc(CCCCCCN)ccc32)c1 [Cmpd 123]		0.015	0.64	0.015	
N=C(N)NCCCCCCc1ccc2c(c1)C(=O)N(CCC(=O)O)CC(=O)N2Cc1cccc(NC(=O)CCCNC(=N)N)c1 [Cmpd 113]		0.01	0.87	0.01	
NCCCCCCc1ccc2c(c1)C(=O)N(CCC(=O)O)CC(=O)N2Cc1cccc2ccccc12 [Cmpd 82, 1-(1-napthyl)methyl-4-(2-carboxyethyl)-7-(6-aminohexyl)-3,4-dihydro-1H-1,4-benzodiazepine-2,5-dione trifluoroacetate]	0.015	0.015	0.76		
COc1ccc(CN2C(=O)CN(CCC(=O)O)C(=O)c3cc(CCCCCCNC(=N)N)ccc32)cc1 [Cmpd 84, 1-(p-methoxybenzyl)-4-(2-carboxyethyl)-7-(6-guanidinohexyl)-3,4-dihydro-1H-1,4-benzodiazepine-2,5-dione trifluoroacetate]	0.024	0.024	10.4		
NCCCCCCc1ccc2c(c1)C(=O)N(CCC(=O)O)CC(=O)N2Cc1cccc(N)c1 [Cmpd 122]		0.01	0.49	0.012	
NCCCCCCc1ccc2c(c1)C(=O)N(CCC(=O)O)CC(=O)N2Cc1cccc(NC(=O)CCCCN)c1 [Cmpd 114]		0.008	0.31	0.008	
CCCCC(=O)Nc1cccc(CN2C(=O)CN(CCC(=O)O)C(=O)c3cc(CCCCCCNC(=N)N)ccc32)c1 [Cmpd 124]		0.012	2.76	0.012	
NCCCCCCc1ccc2c(c1)C(=O)N(CCC(=O)O)CC(=O)N2Cc1cccc(NC(=O)CCCCCN)c1 [Cmpd 116]		0.011	0.27	0.011	
N=C(N)NCCCCCc1ccc2c(c1)C(=O)N(CCC(=O)O)CC(=O)N2Cc1ccc2ccccc2c1 [Cmpd 75, 1-(2-napthyl)methyl-4-(2-carboxyethyl)-7-(5-guanidinopentyl)-3,4-dihydro-1H-1,4-benzodiazepine-2,5-dione trifluoroacetate]	0.011	0.011	6.88		
O=C(O)CCN1CC(=O)N(Cc2ccc(Cl)cc2)c2ccc(-c3ccc(N4CCNCC4)cc3)cc2C1=O [Cmpd 73, 1-(p-chlorobenzyl)-7-[4-(1-piperazine)phenyl]-4-(2-carboxyethyl)-3,4-dihydro-1H-1,4-benzodiazpine-2,4-dione trifluoroacetate]	0.007	0.007	0.67		2.3
NCCCCCCc1ccc2c(c1)C(=O)N(CCC(=O)O)CC(=O)N2Cc1cccc(NC(=O)CCCN)c1 [Cmpd 112, 1-[3-(N-(4-aminobuturyl))aminophenyl]methyl-4-(2-carboxyethyl)-7-(6-aminohexyl)-3,4-dihydro-1H-1,4-benzodiazapine-2,5-dione bistrifluoroacetate]		0.008	0.4	0.008	
N=C(N)Nc1ccc(C(=O)Nc2cccc(CN3C(=O)CN(CCC(=O)O)C(=O)c4cc(CCCCCCN)ccc43)c2)cc1 [Cmpd 127, 1-(3-(4-guanidinobenzoyl)aminophenyl)methyl-4-(2-carboxyethyl)-7-(6-aminohexyl)-3,4-dihydro-1H-1,4-benzodiazapine-2,5-dione]		0.008	0.35	0.008	
N=C(N)NCCCCCc1ccc2c(c1)C(=O)N(CCC(=O)O)CC(=O)N2Cc1cccc2ccccc12 [Cmpd 77, 1-(1-napthyl)methyl-4-(2-carboxyethyl)-7-(5-guanidinopentyl)-3,4-dihydro-1H-1,4-benzodiazepine-2,5-dione trifluoroacetate]	0.008	0.008	2.65		
CC(CC(=O)O)N1CC(=O)N(C)c2ccc(C#CCCCNC(=N)N)cc2C1=O (stereo not drawn) [Cmpd 38, 1-methyl-4-(2-carboxy-1-methylethyl)-7-(5-guanidino-1-pentynyl)-3,4-dihydro-1H-1,4, benzodiazepine-2,5-dione trifluroacetate]	0.018	0.018	1.19		
N=C(N)NCCCCCCc1ccc2c(c1)C(=O)N(CCC(=O)O)CC(=O)N2Cc1cccc(NC(=O)CCCCNC(=N)N)c1 [Cmpd 115]		0.018	0.92	0.013	
COc1ccc(CN2C(=O)CN(CCC(=O)O)C(=O)c3cc(CCCCCCN)ccc32)cc1 [Cmpd 81, 1-(p-methoxybenzyl)-4-(2-carboxyethyl)-7-(6-aminohexyl)-3,4-dihydro-1H-1,4-benzodiazepine-2,5-dione trifluoroacetate]	0.023	0.023	0.98		
N=C(N)NCCCCCCCCOc1ccc2c(c1)C(=O)N(CCC(=O)O)CCC2 [Cmpd 152, 2-(2-carboxyethyl)-8-(8-guanadinooctyloxy)-2,3,4,5-tetrahydro-1H-2-benzazepin-1-one trifluoroacetate]				50	
CC1C(=O)N(C)c2ccc(CCCN)cc2C(=O)N1CCC(=O)O (stereo not drawn) [Cmpd 7]	30				
N=C(N)NCCCCCc1ccc2c(c1)C(=O)N(CCC(=O)O)CC(=O)N2 [Cmpd 30]	0.204				
CC1C(=O)N(C)c2ccc(CCCCN)cc2C(=O)N1CCC(=O)O (stereo not drawn) [Cmpd 23]	> 100				
N=C(N)NCCCC#Cc1ccc2c(c1)C(=O)N(CCC(=O)O)CC(Cc1ccccc1)O2 (stereo not drawn) [Cmpd 149]				0.823	
N=C(N)NCCC#Cc1cccc(C(=O)NCCC(=O)O)c1 [Cmpd 160]				1.01	
N=C(N)NCCCC#Cc1cccc(C(=O)NCCC(=O)O)c1 [Cmpd 162]				1	
CC1C(=O)N(C)c2ccc(CCCNC(=N)N)cc2C(=O)N1CCC(=O)O (stereo not drawn) [Cmpd 8]	> 100				
NCCCCCCc1ccc2c(c1)C(=O)N(CCC(=O)O)CC(=O)N2Cc1ccc(N)cc1 [Cmpd 128]				0.024	
CN1C(=O)C(c2ccccc2)N(CCC(=O)O)C(=O)c2cc(CCCN)ccc21 (stereo not drawn) [Cmpd 11]	600				
N=C(N)NCCCC#Cc1ccc2c(c1)C(=O)N(CCC(=O)O)CC(=O)N2Cc1ccc(Cl)cc1 [Cmpd 59]	0.009				
